Results as given in patent US11518760B2 (Liverpool School of Tropical Medicine, priority 2017, dated 2022).

Legend:
[1] = test system: Wolbachia in Brugia malayi larvae; assay: Larval Brugia malayi mouse model, Wolbachia wsp qPCR; assay type: in vivo; details: BALB/c IL4Rα−/− mice, oral, 25 MK bid + 14 d; larvae recovered 14 days post-infection
From the text: In a larval Brugia malayi mouse model treatment groups (BALB/c IL4Rα−/− mice, 6-8 week old) received compounds by oral delivery for 7 to 14 days commencing on the day of intraperitoneal infection with Brugia malayi third-stage larvae. At 14 days post-infection, larvae were recovered from the peritoneal cavity, counted, and length measured. Genomic DNA was extracted from individual worms (10/group) and quantification of the Wolbachia surface protein (wBm-wsp) gene copy numbers performed by quantitative PCR.
Treatment dosage unit is mg/kg (MK) and duration stated in days (d). Abbreviations: DOX (doxycycline), bid (twice daily), Ms (mesylate). Data in Table 4 are expressed as a reduction in Wolbachia load in comparison to the vehicle control group.

[2] = test system: Wolbachia of the target parasite, Brugia malayi; assay: In vitro microfilariae (Mf) Brugia malayi screen, wsp/gst qPCR; assay type: cell-based; details: B. malayi Mf, 6 days
Method: An in vitro microfilariae (Mf) assay was used to screen against Wolbachia of the target parasite, Brugia malayi. The Mf were obtained by peritoneal lavage of gerbils (Meriones unguiculatus) harbouring a patent infection of Brugia malayi as described previously (Griffiths et al., 2010, Lab Animal).
Mf were purified using a PD-10 desalting column (Fisher) followed by centrifugation (1200 rpm for 5 minutes at room temperature) then re-suspended in filter-sterilised culture medium consisting of RPMI supplemented with heat-inactivated Foetal Calf Serum (HI-FCS), 1% Penicillin-Streptomycin and 1% Amphotericin B.
After determining the concentration of Mf, the stock solution was diluted in culture medium to ensure a final concentration of 8000 Mf/well of a 96 well plate (100 μl per well). Compounds to be tested (10 mM stock in 100% DMSO) were diluted to appropriate working concentrations in culture medium and 100 μl was added to the appropriate wells of the 96 well plate containing the Mf. Five replicates were used for each compound and each plate contained doxycycline (5 μM) and vehicle (DMSO) controls. The plates were incubated at 37° C., 5% CO2, for 6 days.
On day 6, a visual assessment of motility was performed and wells scored from 0 to 4 (where 0=no movement and 4=highly motile) in order to assess whether there were any direct effects against the Mf. To perform the anti-Wolbachia readout, DNA was extracted from each individual well using the QIAmp DNA Mini Kit (Qiagen) ‘DNA Purification from Tissues’ protocol.
The number of Wolbachia present in Mf was assessed by quantification of the Wolbachia surface protein (wsp) gene copy number and normalised to the nematode glutathione S-transferase (gst) gene by qPCR based on methods described by McGarry et al., 2004, Mol Biochem Parasitol. DNA samples were amplified in duplicate in the following 20 μl reactions containing 1× QuantiTect SYBR Green PCR master mix (Qiagen): for wsp, 0.3 μM each of forward ([…]) and reverse ([…]) primer, 3 mM MgCl2 and 2 μl of DNA. For gst, 0.35 μM of forward ([…]) and reverse primer (ATCACGGACGCCTTCACAG), 3.5 mM MgCl2 and 1 μl of DNA. qPCR was performed using the Bio-Rad CFX384 C1000 thermal cycler (Bio-Rad laboratories LTD) with a denaturation step of 95° C. for 15 min then 40 cycles at 95° C. for 15 s, 57° C. (gst) or 60° C. (wsp) for 30 s, and 72° C. for 30 s. Quantification was determined by Bio-Rad CFX manager software by comparing the DNA samples to that of a standard curve generated from serial dilution of plasmid DNA of the appropriate gene. Data in Table 3 are expressed as a reduction in Wolbachia load in comparison to the vehicle control group and normalized by positive control (doxycycline at 5 μM).

[3] = test system: Wolbachia in adult male Onchocerca ochengi; assay: Adult Onchocerca ochengi mouse model, Wolbachia wsp qPCR; assay type: in vivo; details: CB.17(BALB/c) SCID mice implanted with male O. ochengi, oral
From the text: Viable male Onchocerca ochengi were aseptically isolated from naturally parasitized cattle. Between 10-11 male Onchocerca were surgically implanted into the peritoneal cavity of CB.17(BALB/c) SCID mice under anaesthesia. […] 38 Days after O. ochengi surgical implantation, mice were necropsied to recover the live worms. Genomic DNA was extracted from individual adult worms (10/group) and quantification of the O. ochengi-specific Wolbachia surface protein (wsp) performed by quantitative PCR. Data in Table 6 is expressed as a reduction in Wolbachia load in comparison to the vehicle control group.

| Compound | % Wolbachia reduction cf median Vehicle [1] | % Reduction level normalised to DOX (5 μm) ([2]; 500 nM) | % Wolbachia reduction cf. DMSO ([2]; 500 nM) | % Reduction level normalised to DOX (5 μm) ([2]; 5 μM) | % Wolbachia reduction cf. DMSO ([2]; 5 μM) | % Wolbachia reduction cf median Vehicle ([3]; 25 MK bid + 28 d) | % Wolbachia reduction cf median Vehicle ([3]; dose/duration stands in the drawing (not visible)) |
| --- | --- | --- | --- | --- | --- | --- | --- |
| C[C@H]1c2cccc(O)c2C(=O)C2=C(O)[C@]3(O)C(=O)C(C(N)=O)=C(O)[C@@H](N(C)C)[C@@H]3[C@@H](O)[C@@H]21 [DOX, doxycycline, reference compound] | 99.05% | 92.9% | 80.0% | 100.0% | 89.6% | 98.7% |  |
| C[C@H]1COCCN1c1nc(NCc2cccnc2C(F)(F)F)c2cccnc2n1 [drawing 702] |  |  |  |  |  |  | 96.2% |
